According to patent publication US9920096B2, “Bradykinin receptor modulators and use thereof” (Sepia Pesquisa e Desenvolvimento, priority 2013, dated 2018):

Experiments:
[1] = tested on: Human umbilical vein endothelial cells (HUVEC); assay: In vitro angiogenesis assay on Matrigel (HUVEC); type: cell-based
Experimental: The angiogenesis assay was performed according to the protocol described in Paschoalin T, et al (2007).
Human umbilical vein endothelial cells (HUVEC) were maintained in complete RPMI 1640 medium, pH 7.2, supplemented with 10 mM N-2-hydroxyethylpiperazine-N′-2-ethanesulphonic acid (HEPES), 24 mM sodium bicarbonate, 10% heat-inactivated fetal calf serum (FCS) from Gibco (Minneapolis, Minn., USA) and 40 μg/mL gentamicin sulfate (Hipolabor Farmacéutica, Sabará, MG, Brazil).
In vitro angiogenesis assay on Matrigel was performed as described previously (Paschoalin et al, 2007). Briefly, BD Matrigel Matrix (B&D Biosciences, Bedford, Mass., USA) was thawed on ice, distributed in 96-well plates (50 μL per well) and allowed to polymerize for 1 h at 37° C. HUVECs (15×10^3 cells/well) were suspended in 100 μL of RPMI medium supplemented with 2% of FCS and added to each well in the presence of peptides with possible angiogenic activity. Angiogenic stimulators and inhibitors can be incubated with the cells before adding on the Matrigel if necessary. The plates were incubated at 37° C. for 18 h and then images were captured at 8× magnification with a Sony Cyber-shot camera coupled to a light inverted microscope. The number of pro-angiogenic structures (closed rings arising from dendritic extensions of endothelial cells) was counted from 4 different wells, and the average value was determined for each sample.
When stimulated by angiogenic factors, like BK, HUVEC cells undergo the development of pro-angiogenic structures and it allows studying angiogenic or anti-angiogenic molecules. The number of pro-angiogenic structures is counted and compared to a control and to BK. Generally, peptides of the invention derived from VEGF-A were named PepA, peptides from VEGF-C were named PepC, peptides from VEGF-D were named PepD and peptides from Placental Growth Factor were named PepPl.
* p<0.05, Student's “t” test, when comparing the mean number of pro-angiogenic structures from […] different wells of HUVEC cultures to the control.

HUVEC cells = assay: Intracellular calcium measurement in HUVEC cells (Fluo-3 fluorescence); type: cell-based, Human; settings: for Bradykinin receptor activity indicated by calcium entry data: FIG. 5A-E, with and without B1/B2 antagonists
Experimental: The intracellular calcium measurement was performed according to the method described in Bagnaresi P et al, 2012 and Lungato L, et al., 2012.
Human umbilical vein endothelial cells were cultured in RPMI 1640 (GIBCO) containing 10% heat-inactivated fetal bovine serum (FBS), 24 mM sodium bicarbonate, […] gentamicin, 10 mM HEPES, pH 7.4 at 37° C. in a 5% CO2 humidified atmosphere. 5×10^4 cells were plated on 60 mm dishes (Costar 3260), and incubated in culture medium containing 5 μM Fluo-3 AM (Invitrogen Corporation, CA) for 40 min at 37° C. in a buffer containing the channel blocker Probenecid (40 μM), followed by 3 washes with culture medium to discard remaining extracellular probe. The cells were then placed into a culture chamber at 37° C. on the stage of a fluorescence microscope (Zeiss LSM 510 META) with excitation at 488 nm and emission at 505-530 nm. After calcium probe incubation, assays were performed with 1 uM bradykinin (BK), 10 uM PepD 2-10.
Fluorescence data were normalized as F/Fmax, where Fmax represents maximal intracellular fluorescence obtained with Ca2+ released from ER with addition of THG, a Ca2+ATPase inhibitor (Bagnaresi et al. 2012). THG blocks calcium pumps that recover cytosolic calcium from the cytoplasm. Under the action of THG the cytosolic calcium reaches its maximal concentration.
The software-based analysis allowed fluorescence imaging in the whole field or in a selected cell as a function of time (Image J 1.47h, NIH, USA). This was accomplished by defining areas of interest (e.g., an entire cell) on a given image frame and directing the software to construct a graphical representation of intensity over time (GraphPad Software 6 Prisma). Individual traces for typical 15 cells responses represent the intracellular calcium fluorescence changes in the analyzed cell population (Lungato et al. 2012).

[2] = FIG. 2 and 3, peptide at 10 μM, compared to BK 1 μM and control without peptide
[3] = FIG. 4A/4B, 1 μM and 10 μM, 24 h after initial stimulus
[4] = FIG. 5E, peptide 10 μM, in the presence of B1 receptor antagonist DesArg9-Leu8-BK

Q: With “FKPPCVNVF [PepD 1-9, derived from VEGF-D]” as the sequence, how does the “Induction of angiogenesis in HUVEC angiogenesis assay” value (“Induction of angiogenesis” for short) [1, 2] read?
A: able to induce angiogenesis

Q: How did the “Effect on HUVEC angiogenesis assay (number of pro-angiogenic structures)” value ([1]; FIG. 1, tested at 1 μM, 10 μM and 50 μM, effect at 1 and 10 μM, compared to control) turn out when “KPPCVNVFR [PepD 2-10, derived from VEGF-D]” was run?
A: pro-angiogenic effect

Q: And the “Induction of angiogenesis” value [1, 2]?
A: able to induce angiogenesis

Q: And the “Bradykinin receptor activity indicated by calcium entry data” value (HUVEC cells; peptide 10 μM)?
A: B2 agonist

Q: And the “Bradykinin receptor activity indicated by calcium entry data” value (HUVEC cells; peptide 10 μM, listed as PepD2-10)?
A: B1 bradykinin receptor activation

Q: What about the “Cytoplasmic calcium in HUVEC (Fluo-3 fluorescence)” value (HUVEC cells; FIG. 5B, peptide 10 μM) of the same sequence?
A: induces an increase of cytoplasmatic calcium

Q: And the “Calcium entry induced by the peptide after previous addition of B2 receptor antagonist HOE140” value (HUVEC cells; FIG. 5C, HOE 140 10 μM for 10 min before peptide 10 μM)?
A: does not block calcium entry but clearly shows a disruption in the pattern of calcium increase

Q: What about the “Calcium entry induced by the peptide after previous addition of B1 receptor antagonist DesArg9-Leu8-BK” value (HUVEC cells; FIG. 5D, DesArg9-Leu8-BK 10 μM for 10 min before peptide 10 μM) of the same sequence?
A: completely blocks the effect of PepD 2-10

Q: Which “Induction of angiogenesis” value [1, 3] does the source give for “KPPCVSVY [PepC 2-9, derived from VEGF-C]” here?
A: able to induce angiogenesis

Q: For “FKPPCVNVFR [PepD 1-10, derived from VEGF-D]”, which “Induction of angiogenesis” value [1, 2] is on record?
A: able to induce angiogenesis

Q: For “FKPSCVPLM [PepA 1-9, derived from VEGF-A]”, which “Induction of angiogenesis” value [1, 2] is on record?
A: able to induce angiogenesis

Q: With “KPPCVSVYR [PepC 2-10, derived from VEGF-C]” as the sequence, how does the “Induction of angiogenesis” value [1, 3] read?
A: able to induce angiogenesis

Q: For “KPSCVPLM [PepA 2-9, derived from VEGF-A]”, which “Induction of angiogenesis” value [1, 2] is on record?
A: able to induce angiogenesis

Q: How did the “Cell fluorescence due to calcium entry in the cytoplasm of HUVEC” value (HUVEC cells; [4]) turn out when “FSPSCVSLLR [PepPl 1-10, derived from Placental Growth Factor]” was run?
A: induces an increase in cell fluorescence

Q: What about the “Duration of transient fluorescence increase (cytoplasmic calcium increase)” value (HUVEC cells; [4]) of the same sequence?
A: around 5 minutes

Q: Which “Induction of angiogenesis” value ([1]; FIG. 4C, 0.1, 1.0 and 10 μM, 24 h after initial stimulus) does the source give for “FKPPCVSVYR [PepC 1-10, derived from VEGF-C]” here?
A: able to induce angiogenesis
